Measured values reported in ChEMBL document CHEMBL2434938, “Identification of new inhibitors for low molecular weight protein tyrosine phosphatase isoform B” (Bioorg Med Chem Lett, 2013).

Experiments:
[1] = biological target: Low molecular weight phosphotyrosine protein phosphatase (Homo sapiens) (UniProt P24666); test: Competitive inhibition of human GST-tagged LMW-PTP-B expressed in Escherichia coli JM 109 cells using p-nitrophenyl phosphate as substrate after 15 mins by microplate reader analysis
[2] = biological target: Low molecular weight phosphotyrosine protein phosphatase (Homo sapiens) (UniProt P24666); test: Uncompetitive inhibition of human GST-tagged LMW-PTP-B expressed in Escherichia coli JM 109 cells using p-nitrophenyl phosphate as substrate after 15 mins by microplate reader analysis
[3] = biological target: Low molecular weight phosphotyrosine protein phosphatase (Homo sapiens) (UniProt P24666); test: Competitive inhibition of LMW-PTP-B (unknown origin)

Chain of Low molecular weight phosphotyrosine protein phosphatase (Homo sapiens) (P24666 whole entry, looked up): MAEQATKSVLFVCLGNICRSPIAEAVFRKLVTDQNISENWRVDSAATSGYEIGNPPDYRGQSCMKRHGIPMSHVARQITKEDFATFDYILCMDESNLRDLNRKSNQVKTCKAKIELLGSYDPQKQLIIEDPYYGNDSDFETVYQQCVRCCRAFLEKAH

Compound	Kis [1]	other results
O=C(O)CCNC1CCCCC1	3300 µM	–
O=c1cc(-c2ccc(O)cc2)oc2c(O)c(O)c(O)c(O)c12	18.8 µM	–
Cc1c2cc(O)c(=O)cc-2oc2cc(O)c(O)cc12	13.5 µM	Kii [2]: 31.7 µM
O=Cc1c[nH]c2ncccc12	7190 µM	–
Cn1c(=O)c2nc(CNc3ccc(C(=O)O)cc3)[nH]c2n(C)c1=O	1560 µM	–
Nc1nc(N)nc([C@@H]2C=CCCC2)n1	> 450 µM	–
Cc1ncc(COP(=O)(O)O)c(C=O)c1O	3.73 µM	Kis [3]: 7.6 µM
Oc1cc(-c2nn[nH]n2)nc(O)n1	> 450 µM	–
Cc1cccc(N=C(S)Nc2cccc(C)n2)n1	> 450 µM	–
CCCCSc1cc(C)nc(N)n1	> 450 µM	–
CCO[C@H]1CCc2c(C)nc(N)nc2S1	–	Kii [2]: 122 µM
O=C1c2ccccc2C(=O)c2[nH]cnc21	–	Kii [2]: 7.97 µM
O=c1c(O)cccc2cc(O)c(O)c(O)c12	10.4 µM	–
Cn1c(=O)c2nc(COc3ccc(C(C)(C)C)cc3)[nH]c2n(C)c1=O	> 450 µM	–
O[C@@H]1[C@H](OCc2ccccc2)OC[C@@H](O)[C@H]1O	> 450 µM	–
Nc1o[nH]c(=O)c1C1CCCCC1	> 450 µM	–
O=C(O)c1nn(-c2ccccc2-c2nnc(O)nc2O)c(=O)[nH]c1=O	1650 µM	–
CC[C@@]1(O)C(=O)OCc2c1cc1n(c2=O)Cc2cc3c(NC(=O)CN)cccc3nc2-1	538 µM	–
Nc1nc2c[nH]c(N)nc-2n1	31.7 µM	–
N=C(N)n1c(N)nc2ccccc2c1=O	1180 µM	–
CC(C)(C)c1ccc(OCC(=O)O)cc1	> 450 µM	–
O=C(O)C1OCC2(CO1)COC(C(=O)O)OC2 (stereo not given)	> 450 µM	–

Compound	Kis [1]	other results
COc1ccc(C(=O)O)nc1C	2780 µM	–
Cc1ccc([N+](=O)[O-])cc1NC(=O)Nc1ccc(S(N)(=O)=O)cc1	2230 µM	–
c1ccc(CSc2nc3c[nH]cnc-3n2)cc1	> 450 µM	–
Nc1nc(SCc2ccccn2)c2ncn([C@@H]3O[C@H](CO)[C@@H](O)[C@H]3O)c2n1	> 450 µM	–
CC1=C[C@H](O)[C@@H](O)[C@]2(C)[C@H]3[C@@]4(O)OC[C@]35[C@H]([C@@H](C)[C@H]4O)[C@@H](O)C(=O)O[C@@H]5C[C@@H]12	> 450 µM	–
COc1ccc2nc3cc(Cl)ccc3c(C#N)c2c1	> 450 µM	–
Cc1cc(C)c2c(SC(C)C)nc(N)nc2n1	925 µM	–
COC(=O)[C@@H]1[C@H](O)[C@H](C)[C@H](O)[C@H](C)/C=C\C=C(/C)C(=O)Nc2c(C)c(OC(C)=O)c3c(c2O)C(=O)C(C)=C2OCOC(=C23)/C(C)=C/[C@@](C)(O)[C@H](O)[C@@H](C)[C@H]1O	93.9 µM	–
O=C(O)CCCC[C@@H]1SC[C@@H]2NC(=O)N[C@@H]21	2330 µM	–
Nc1nc(N)c(/N=N/c2ccc(SCC(=O)O)cc2)c(O)n1	730 µM	–
Nc1nc(N)c(/N=N/c2ccc(S(N)(=O)=O)cc2)c(O)n1	128 µM	–
O=C(O)/C=C/C(=O)N1Cc2cc3ccccc3nc2C1	493 µM	–
O=C(/C=C/c1ccc(O)c(O)c1)OC1[C@@H](O)CC(OC(=O)/C=C/c2ccc(O)c(O)c2)(C(=O)O)C[C@@H]1O (stereo not given in full)	635 µM	–
O=C(O)Cc1ccc(/N=N/c2c(O)c(C(=O)O)cc3ccccc23)cc1	33.5 µM	–
OCC(O)C1OCOC(C(O)CO)C1O (stereo not given)	> 450 µM	–
CC(C)c1nc2c(=O)n(C)c(=O)n(C)c2[nH]1	> 450 µM	–
O=c1oc2c(cc1O)oc(=O)c1cc(O)c(O)c(O)c12	10.8 µM	–
O=C(O)c1ccc2c(c1Nc1ccccc1)C(=O)c1ccccc1C2=O	161 µM	–
O=C(O)c1ccc(N2CCCCC2)cc1O	> 450 µM	–
Cc1cccc(C)c1NC(=O)Nc1ccc(S(N)(=O)=O)cc1	1760 µM	–
C[C@@H]1O[C@@H](Oc2c(-c3cc(O)c(O)c(O)c3)oc3cc(O)cc(O)c3c2=O)[C@H](O)[C@H](O)[C@H]1O	> 126 µM	–
